Here are results for two molecules from paper PMC12475274, “Harnessing indole scaffolds to identify small-molecule IRE1α inhibitors modulating XBP1 mRNA splicing” (Nature Communications, 2025).

One assay deals with TNIK (Homo sapiens, UniProt Q9UKE5). Briefly: Kinase profiling (SelectScreen), LanthaScreen Binding. As to conditions: IA107 at 5 μM. On the procedure: (§1) Kinase profiling was conducted by the SelectScreen Kinase Profiling Services (Thermo Fisher), using Z′-LYTE, Adapta, or LanthaScreen Eu Kinase Binding Assay for different kinases. The kinome phylogenetic tree was generated using the KinMap web portal.

For the next assay, the target named is BMPR1B (ALK6) (Homo sapiens, UniProt O00238). Described as above. As to conditions: IA107 at 5 μM. On the procedure: as §1
Chain of BMPR1B (ALK6) (O00238 14-502): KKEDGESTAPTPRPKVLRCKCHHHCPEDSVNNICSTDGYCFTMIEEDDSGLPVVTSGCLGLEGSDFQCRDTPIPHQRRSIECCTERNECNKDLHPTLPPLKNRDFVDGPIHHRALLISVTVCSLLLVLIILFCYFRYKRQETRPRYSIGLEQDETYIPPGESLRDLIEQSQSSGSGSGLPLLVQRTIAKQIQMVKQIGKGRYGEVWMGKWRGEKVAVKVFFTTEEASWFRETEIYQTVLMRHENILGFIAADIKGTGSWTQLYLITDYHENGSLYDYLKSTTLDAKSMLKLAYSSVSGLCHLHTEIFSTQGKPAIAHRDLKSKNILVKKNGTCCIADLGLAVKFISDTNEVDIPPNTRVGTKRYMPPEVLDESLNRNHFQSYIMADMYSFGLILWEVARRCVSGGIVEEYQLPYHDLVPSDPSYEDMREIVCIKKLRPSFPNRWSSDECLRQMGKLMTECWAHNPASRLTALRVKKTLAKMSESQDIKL
For a further assay, the target named is BMPR2 (Homo sapiens, UniProt Q13873). The assay is described as above. As to conditions: IA107 at 5 μM. As for the experimental part:
as §1

For a further assay, the target named is CDK8/cyclin C (Homo sapiens, UniProt P49336). The description is as above. Conditions: IA107 at 5 μM. As for the experimental part: as §1
Chain of CDK8/cyclin C (P49336 whole entry): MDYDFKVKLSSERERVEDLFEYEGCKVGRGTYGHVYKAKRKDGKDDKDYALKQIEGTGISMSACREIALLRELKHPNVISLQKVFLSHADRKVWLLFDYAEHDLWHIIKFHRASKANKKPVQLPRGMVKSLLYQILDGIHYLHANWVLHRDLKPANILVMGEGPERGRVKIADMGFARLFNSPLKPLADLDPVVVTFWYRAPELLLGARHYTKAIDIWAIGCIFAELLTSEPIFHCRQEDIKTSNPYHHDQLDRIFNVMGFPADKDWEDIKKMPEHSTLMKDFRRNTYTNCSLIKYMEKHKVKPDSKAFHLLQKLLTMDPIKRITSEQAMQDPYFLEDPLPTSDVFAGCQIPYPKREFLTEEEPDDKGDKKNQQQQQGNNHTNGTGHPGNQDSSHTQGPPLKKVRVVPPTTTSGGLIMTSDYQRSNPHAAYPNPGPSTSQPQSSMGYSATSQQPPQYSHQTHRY
Chain of CDK8/cyclin C (P24863 whole entry partner): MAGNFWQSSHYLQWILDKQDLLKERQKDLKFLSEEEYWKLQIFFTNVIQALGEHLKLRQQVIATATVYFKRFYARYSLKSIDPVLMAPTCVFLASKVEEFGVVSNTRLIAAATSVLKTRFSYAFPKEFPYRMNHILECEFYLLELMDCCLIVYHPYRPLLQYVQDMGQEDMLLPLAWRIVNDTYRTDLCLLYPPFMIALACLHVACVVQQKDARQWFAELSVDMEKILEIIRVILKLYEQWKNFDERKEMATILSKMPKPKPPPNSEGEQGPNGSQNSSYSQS
In another assay the target is MAP4K1 (HPK1) (Homo sapiens, UniProt Q92918). The description is as above. Conditions: IA107 at 5 μM. On the procedure: as §1
Chain of MAP4K1 (HPK1) (Q92918 whole entry): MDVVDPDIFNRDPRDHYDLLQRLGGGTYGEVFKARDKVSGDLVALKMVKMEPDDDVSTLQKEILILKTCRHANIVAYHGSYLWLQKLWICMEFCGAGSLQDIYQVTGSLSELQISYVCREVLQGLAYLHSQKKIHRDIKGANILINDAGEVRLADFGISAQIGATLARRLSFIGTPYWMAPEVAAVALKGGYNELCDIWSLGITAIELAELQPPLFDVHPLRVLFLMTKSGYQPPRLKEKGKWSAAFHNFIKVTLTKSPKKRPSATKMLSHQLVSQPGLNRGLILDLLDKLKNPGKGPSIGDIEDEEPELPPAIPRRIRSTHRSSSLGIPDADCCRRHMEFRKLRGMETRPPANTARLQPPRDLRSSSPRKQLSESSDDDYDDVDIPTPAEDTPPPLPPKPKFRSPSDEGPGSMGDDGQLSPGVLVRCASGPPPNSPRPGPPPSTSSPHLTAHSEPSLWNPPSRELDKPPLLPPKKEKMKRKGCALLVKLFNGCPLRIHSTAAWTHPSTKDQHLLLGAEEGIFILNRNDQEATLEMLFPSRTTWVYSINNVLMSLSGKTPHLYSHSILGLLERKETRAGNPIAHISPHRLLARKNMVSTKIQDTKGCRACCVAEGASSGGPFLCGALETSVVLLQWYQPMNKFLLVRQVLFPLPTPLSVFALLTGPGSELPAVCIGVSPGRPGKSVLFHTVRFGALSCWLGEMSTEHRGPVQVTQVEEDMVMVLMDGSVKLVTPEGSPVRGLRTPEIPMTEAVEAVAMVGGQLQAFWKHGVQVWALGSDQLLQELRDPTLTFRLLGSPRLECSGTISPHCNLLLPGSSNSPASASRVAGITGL
A further assay deals with RIPK2 (Homo sapiens, UniProt O43353). The description is as above. As to conditions: IA107 at 5 μM. As for the experimental part: as §1
Chain of RIPK2 (O43353 whole entry): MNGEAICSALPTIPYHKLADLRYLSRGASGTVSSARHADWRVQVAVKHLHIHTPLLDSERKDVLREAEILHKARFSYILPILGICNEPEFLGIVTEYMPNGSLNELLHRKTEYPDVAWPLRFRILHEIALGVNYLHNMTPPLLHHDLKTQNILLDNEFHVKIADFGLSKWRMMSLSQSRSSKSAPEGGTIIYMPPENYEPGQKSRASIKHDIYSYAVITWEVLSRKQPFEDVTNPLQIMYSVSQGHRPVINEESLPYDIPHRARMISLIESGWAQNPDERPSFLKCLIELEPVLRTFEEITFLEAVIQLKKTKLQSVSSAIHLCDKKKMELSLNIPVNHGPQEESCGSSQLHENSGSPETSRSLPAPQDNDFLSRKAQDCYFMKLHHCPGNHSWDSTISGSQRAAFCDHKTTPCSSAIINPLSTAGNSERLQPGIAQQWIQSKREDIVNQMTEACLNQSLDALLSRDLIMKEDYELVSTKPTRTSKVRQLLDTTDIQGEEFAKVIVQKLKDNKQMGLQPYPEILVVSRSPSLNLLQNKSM
The next assay deals with MYO3B (MYO3 beta) (Homo sapiens, UniProt Q8WXR4). The assay is described as above. As to conditions: IA107 at 5 μM. As for the experimental part: as §1
For the next assay, the target named is MAP3K11 (MLK3) (Homo sapiens, UniProt Q16584). Described as above. As to conditions: IA107 at 5 μM. As for the experimental part: as §1
Chain of MAP3K11 (MLK3) (Q16584 whole entry): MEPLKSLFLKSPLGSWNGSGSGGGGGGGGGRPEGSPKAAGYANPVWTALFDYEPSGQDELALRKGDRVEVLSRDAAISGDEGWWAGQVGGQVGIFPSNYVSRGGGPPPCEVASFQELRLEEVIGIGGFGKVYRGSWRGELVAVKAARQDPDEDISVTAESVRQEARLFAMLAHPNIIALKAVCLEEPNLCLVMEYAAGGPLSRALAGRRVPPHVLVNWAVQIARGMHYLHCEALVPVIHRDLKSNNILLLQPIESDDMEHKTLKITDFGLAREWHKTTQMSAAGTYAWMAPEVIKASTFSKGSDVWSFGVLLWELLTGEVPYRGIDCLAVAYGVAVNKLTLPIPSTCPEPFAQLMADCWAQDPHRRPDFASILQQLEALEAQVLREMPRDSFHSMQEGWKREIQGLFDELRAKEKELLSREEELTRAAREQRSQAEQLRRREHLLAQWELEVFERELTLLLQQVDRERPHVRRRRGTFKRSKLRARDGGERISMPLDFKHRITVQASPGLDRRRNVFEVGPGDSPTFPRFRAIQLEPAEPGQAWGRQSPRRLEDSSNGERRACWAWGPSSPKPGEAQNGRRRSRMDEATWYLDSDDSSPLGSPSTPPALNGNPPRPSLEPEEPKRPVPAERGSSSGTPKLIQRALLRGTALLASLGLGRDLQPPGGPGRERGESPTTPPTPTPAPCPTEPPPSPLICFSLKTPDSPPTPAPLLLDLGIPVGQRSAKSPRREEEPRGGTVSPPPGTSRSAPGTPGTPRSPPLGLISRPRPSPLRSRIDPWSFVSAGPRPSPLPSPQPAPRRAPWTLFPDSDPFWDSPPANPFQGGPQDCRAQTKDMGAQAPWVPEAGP
The target of the next assay is CASK (Homo sapiens, UniProt O14936). Described as above. As to conditions: IA107 at 5 μM. On the procedure: as §1
Chain of CASK (O14936 whole entry): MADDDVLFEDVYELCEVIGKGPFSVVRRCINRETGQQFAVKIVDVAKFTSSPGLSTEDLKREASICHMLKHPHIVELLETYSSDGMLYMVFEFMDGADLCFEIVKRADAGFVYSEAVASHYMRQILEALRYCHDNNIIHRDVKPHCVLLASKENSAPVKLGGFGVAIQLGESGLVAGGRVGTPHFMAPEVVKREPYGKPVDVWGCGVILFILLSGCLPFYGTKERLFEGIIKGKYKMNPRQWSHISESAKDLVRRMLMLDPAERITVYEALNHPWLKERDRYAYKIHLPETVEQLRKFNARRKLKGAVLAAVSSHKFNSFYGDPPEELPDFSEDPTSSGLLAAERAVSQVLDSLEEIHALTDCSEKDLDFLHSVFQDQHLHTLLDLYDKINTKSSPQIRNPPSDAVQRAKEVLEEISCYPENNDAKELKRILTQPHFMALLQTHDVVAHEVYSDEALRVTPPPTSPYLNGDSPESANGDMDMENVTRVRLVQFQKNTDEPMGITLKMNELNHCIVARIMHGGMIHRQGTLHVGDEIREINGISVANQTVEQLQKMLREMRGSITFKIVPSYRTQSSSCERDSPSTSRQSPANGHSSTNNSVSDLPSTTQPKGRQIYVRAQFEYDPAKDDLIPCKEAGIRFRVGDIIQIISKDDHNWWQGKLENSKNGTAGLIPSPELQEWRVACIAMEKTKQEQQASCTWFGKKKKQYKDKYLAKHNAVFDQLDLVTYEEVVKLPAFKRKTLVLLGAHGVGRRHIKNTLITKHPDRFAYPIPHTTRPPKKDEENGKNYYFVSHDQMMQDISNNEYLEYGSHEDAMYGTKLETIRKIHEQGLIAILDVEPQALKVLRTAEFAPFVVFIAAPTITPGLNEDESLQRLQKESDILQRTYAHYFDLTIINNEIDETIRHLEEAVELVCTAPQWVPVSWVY
For another assay, the target named is GSG2 (Haspin) (Homo sapiens, UniProt Q8TF76). Nature of the assay: Kinase profiling (SelectScreen), Adapta. Type of assay: biochemical. As for the experimental part:
as §1

In the next assay the target is T1, dephosphorylated IRE1α (Homo sapiens, UniProt O75460).
T1 construct: Human IRE1α kinase and RNase domain (residues 547–977) was subcloned into pLIB plasmid; His tag (with TEV cleavage site) (N, cleaved yes); made in house; host or cells: Sf9 insect cells, baculovirus (Bac-to-Bac)
T1 sequence (O75460 547-977): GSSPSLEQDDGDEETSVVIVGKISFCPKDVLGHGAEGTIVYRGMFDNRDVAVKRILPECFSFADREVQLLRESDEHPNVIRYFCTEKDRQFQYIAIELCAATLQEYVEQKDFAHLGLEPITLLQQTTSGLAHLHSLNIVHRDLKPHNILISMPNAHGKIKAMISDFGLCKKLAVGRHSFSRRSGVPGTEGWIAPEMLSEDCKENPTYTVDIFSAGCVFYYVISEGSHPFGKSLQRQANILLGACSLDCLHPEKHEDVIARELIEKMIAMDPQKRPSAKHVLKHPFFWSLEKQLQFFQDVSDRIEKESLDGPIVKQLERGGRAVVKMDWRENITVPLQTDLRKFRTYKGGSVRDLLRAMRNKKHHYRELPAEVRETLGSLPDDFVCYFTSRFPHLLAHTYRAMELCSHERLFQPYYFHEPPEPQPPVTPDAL
Nature of the assay: Microscale thermophoresis (MST), IRE1α. In kind it is binding. On the procedure: Dephosphorylated IRE1α protein and phosphorylated IRE1α protein were labeled and purified using Protein Labeling Kit RED-NHS 2nd Generation (NanoTemper, MO-L011), following the manufacturer’s protocol. The labeling buffer contained 50 mM HEPES, pH 7.5, 200 mM NaCl, 2% glycerol, 0.5 mM TCEP, 0.05% tween20. MST experiments were performed using the Monolith Nt.115 instrument (NanoTemper), and binding experiments were conducted according to the instrument’s instructions. Compounds were serially diluted 2-fold and incubated with labeled IRE1α protein at a final concentration of 20 nM. The highest compound concentration measured was 250 μM with a final DMSO concentration of 2.5%. Measurements were carried out using the red detector with 60% excitation power. Data were analyzed using the manufacturer’s software, and results from three individual measurements were merged for analysis.
(In general: MST reads how a fluorescent partner responds to local heating, with and without ligand.)

The target of another assay is T2, IRE1α (Homo sapiens, UniProt O75460).
T2 construct: Human IRE1α kinase and RNase domain (residues 547–977) was subcloned into pLIB plasmid; His tag (with TEV cleavage site) (N, cleaved yes); made in house; host or cells: Sf9 insect cells, baculovirus (Bac-to-Bac)
T2 sequence (O75460 547-977): as above
Nature of the assay: Michaelis–Menten kinetic analysis with XBP1 RNA substrate. Type of assay: biochemical. On the procedure:
I/s (fluorescence intensity/second), 7.98 FL. I/s, 2.33 FL. I/s and 0.9 FL. I/s, respectively.
The dual-labeled RNA substrate with a FAM at 5’ and the BHQ-1 at 3’ containing the XBP1 sequence (5′FAM-[…]-3′BHQ1) was purchased from Integrated DNA Technologies (IDT). The FRET-based IRE1α RNase activity assay was carried out in reaction buffer containing 20 mM HEPES pH 7.5, 50 mM KOAc, 1 mM MgOAc2, 1 mM DTT, 0.05% v/v TritonX-100, at a total reaction volume of 20 μL in a 384-well black plate (4514, Corning). […] […] The indicated compound and IRE1α protein were incubated for 30 min at room temperature before the substrate was added to the reaction. The plate was then kinetically read over one hour at room temperature using a TECAN Spark plate reader. The measurement was carried out using the fluorescence top reading mode at the excitation wavelength of 485 nm and the emission wavelength of 535 nm with a 10 nm excitation and emission bandwidth. The linear part of the reaction curve was adopted and fitted with sample linear regression to obtain the slope, and the slope was adopted to reflect the reaction rate. The inhibition % was calculated by using the equation: inhibition% = 100 × (slope of DMSO control – slope of the sample)/(slope of DMSO control – slope of blank control), DMSO control: DMSO with protein and RNA substrate; Blank control: DMSO with RNA substrate. The IC50 values were calculated using the concentration-response model in GraphPad Prism 9.

In assay [1] the test system is XBP1 mRNA splicing in HT-29 cells. Briefly: RT-qPCR of ER stress-induced XBP1 mRNA splicing, HT-29. Conditions: HT-29 cells. Type of assay: cell-based, human. On the procedure: (§2) A549 cells, HCT 116 cells, and HT-29 cells were collected and seeded in 6-well plates at a density of 5 × 10^5 cells per well and cultured overnight to attach, then treated with compound or DMSO for 2 h, then 0.5 μg/mL final concentration of tunicamycin (Tm, MP Biomedi, 0215002805) were added to induce the ER stress for 2 h. After treatment, total RNA was purified using an RNeasy mini kit (Qiagen, 74106). 500 ng of total RNA was used for reverse transcription using the High-Capacity cDNA Reverse Transcription Kits (Thermo Fisher, 4368814). cDNA was diluted 1: 5 using RNase-free water, and 1 μL CDNA was used for each qPCR reaction. The qPCR was performed using PowerUp™ SYBR™ Green Master Mix (Thermo Fisher, A25742) with 10 µL reaction volume using Bio-Rad CFX96 Real-Time PCR Detection System following the standard cycling mode (primer Tm ≥ 60 °C) on the manufacturer’s protocol. Data was analyzed using the 2^- ΔΔCt method. The primers used are listed in Supplementary Table S3. The inhibition % was calculated by using the equation: inhibition% = 100× (normalized Tm control - normalized of the sample)/(normalized Tm control - normalized DMSO control). Tm control: Cells treated with tunicamycin; DMSO control: Cells treated with DMSO only.
A general note: In qPCR the cycle at which signal appears reflects the starting amount.

For assay [2], the system named is IRE1α transcription level in A549 cells. Briefly: RT-qPCR of IRE1α transcription level, A549. In kind it is cell-based, human. Conditions: A549 cells. As for the experimental part:
as §2

In assay [3] the test system is IRE1α transcription level in HT-29 cells. Briefly: RT-qPCR of IRE1α transcription level, HT-29. Type of assay: cell-based, human. Conditions: HT-29 cells. On the procedure:
as §2

Assay [4] relates to IRE1α transcription level in HCT 116 cells. Nature of the assay: RT-qPCR of IRE1α transcription level, HCT 116. Type of assay: cell-based, human. As to conditions: HCT 116 cells. As for the experimental part:
as §2

Where “and” joins values, the source holds several entries; their conditions need not be identical. Equal entries are not always repeated. Entries after “also recorded” stand apart in the source; their conditions may differ.

The term inhibition denotes the relative decrease from the control value, in per cent. Usually Kd stands for the concentration at which binding is half-saturated. Low readings indicate tighter binding, high ones weaker binding. Turning to `Cc1c(CCC(=O)O)c2cc(Br)ccc2n1C(=O)c1ccccc1` [IA107], the inhibition at 5 µM at TNIK is 8%; at BMPR1B (ALK6) it was 12%; at BMPR2 it was -4%; on CDK8/cyclin C, 35%; at MAP4K1 (HPK1), -2%; at RIPK2, 0%. The inhibition at 5 µM is -2% on MYO3B (MYO3 beta), -3% on MAP3K11 (MLK3), -14% at CASK and 4% on GSG2 (Haspin). The molecule also gave a Kd on dephosphorylated IRE1α of 1360 nM. Further, the “inhibition mechanism towards the XBP1 mRNA substrate” value against IRE1α is “non-competitive”. The Vmax at IRE1α (0.01 μM IA107) was 7.98 FL. I/s; on IRE1α (0.1 μM IA107) it was 2.33 FL. I/s; at IRE1α (1 μM IA107), 0.9 FL. I/s. Besides, the “IRE1a Velocity” value at IRE1α (RNA 5000 nM, IA107 0.01 μM) is 7.329 FL.I/s and 6.249 FL.I/s; at IRE1α (RNA 5000 nM, IA107 0.1 μM), 1.807 FL.I/s and 2.323 FL.I/s; at IRE1α (RNA 5000 nM, IA107 1 μM), 0.681 FL.I/s and 0.661 FL.I/s; on IRE1α (RNA 10000 nM, IA107 0.01 μM) it was 7.224 FL.I/s and 6.354 FL.I/s; on IRE1α (RNA 10000 nM, IA107 0.1 μM), 1.848 FL.I/s and 1.988 FL.I/s; at IRE1α (RNA 10000 nM, IA107 1 μM), 0.902 FL.I/s and 0.839 FL.I/s.

The term IC50 denotes the concentration that gives 50% inhibition. A higher IC50 goes with weaker potency in that assay. With `CCOC(=O)CCc1c(C)n(C(=O)c2ccccc2)c2ccc(Br)cc12` [IAPD1], the “inhibition of ER stress-induced XBP1 mRNA splicing” value in [1] was “inhibited”. For the same molecule, the IC50 in assay [1] (Homo sapiens) came out at 160 nM. Further, the “effect on IRE1α transcription level” value is recorded as “minimal impacts; also recorded: not affected” in assay [2], “did not influence; also recorded: no obvious impact” in [3] and “did not influence; also recorded: no obvious impact” in [4].
